Drawing on PubChem BioAssay AID330 (DTP/NCI, 2004), this text covers T/C for 23 compounds.

In the test the test system is P388 leukemia ip, CD2F1 mice, survival T/C. Description: NCI In Vivo Anticancer Drug Screen. Data for tumor model P388 Leukemia (intraperitoneal) in CD2F1 (CDF1) mice. To be noted: endpoint: median survival time, higher = longer survival. Summed up:
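Mice carrying the transplanted tumor received test compound or vehicle. Survival was recorded in each group, and the value is the treated-group measurement divided by that of the vehicle-treated control group.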

Where [1] appears, read: dose: 50.0 mg/kg/injection, schedule: Q01DX005 (ip), vehicle: saline with Tween-80.
[2] abbreviates: dose: 100.0 mg/kg/injection, schedule: Q01DX005 (ip), vehicle: saline with Tween-80.
Where [3] appears, read: dose: 50.0 mg/kg/injection, schedule: Q01DX005 (ip), vehicle: Klucel (hydroxypropylcellulose) (HPC).
[4] abbreviates: dose: 100.0 mg/kg/injection, schedule: Q01DX005 (ip), vehicle: Klucel (hydroxypropylcellulose) (HPC).
[5] abbreviates: dose: 200.0 mg/kg/injection, schedule: Q01DX005 (ip), vehicle: Klucel (hydroxypropylcellulose) (HPC).
Where [6] appears, read: dose: 100.0 mg/kg/injection, schedule: Q04DX002 (ip), vehicle: saline.
Setting [7] is: dose: 200.0 mg/kg/injection, schedule: Q04DX002 (ip), vehicle: saline.
[8] abbreviates: dose: 400.0 mg/kg/injection, schedule: Q04DX002 (ip), vehicle: saline.
[9] abbreviates: dose: 50.0 mg/kg/injection, schedule: Q01DX009 (ip), vehicle: saline with Tween-80.
Setting [10] is: dose: 100.0 mg/kg/injection, schedule: Q01DX009 (ip), vehicle: saline with Tween-80.
Setting [11] is: dose: 200.0 mg/kg/injection, schedule: Q01DX009 (ip), vehicle: saline with Tween-80.

Values joined by “and” are separate entries in the source; they are usually repeats but may differ in a detail not shown here. Identical values can stand only once. Toxic doses and inconclusive results are not listed.

Turning to `CC(C)(C)CC(C)(C)c1ccc(O)cc1`, the T/C runs as follows: (dose: 66.0 mg/kg/injection, schedule: Q01DX009 (ip), vehicle: saline) 100 % of control; (dose: 100.0 mg/kg/injection, schedule: Q01DX009 (ip), vehicle: saline) 100 % of control; (dose: 150.0 mg/kg/injection, schedule: Q01DX009 (ip), vehicle: saline) 122 % of control; (dose: 200.0 mg/kg/injection, schedule: Q01DX009 (ip), vehicle: saline sonified) 118 % of control.
For `CN(C)c1ccc2c(c1)C(=O)N(OS(C)(=O)=O)C2=O`, the T/C reads like this: (dose: 25.0 mg/kg/injection, schedule: Q01DX005 (ip), vehicle: saline with Tween-80) 111 % of control; under setting [1], 108 % of control and 117 % of control; under setting [2], 106 % of control.
For `O=c1oc2c(ccc3nc(-c4ccccc4)sc32)c(N2CCOCC2)c1Cl`, the T/C runs as follows: under setting [3], 92 % of control; under setting [4], 91 % of control; under setting [5], 89 % of control.
As for `O=C1CCCC/C1=C/c1ccccc1`, the T/C is 98 % of control (dose: 25.0 mg/kg/injection, schedule: Q01DX005 (ip), vehicle: distilled water + Tween-80 + alcohol); 98 % of control (dose: 50.0 mg/kg/injection, schedule: Q01DX005 (ip), vehicle: distilled water + Tween-80 + alcohol); 100 % of control (dose: 100.0 mg/kg/injection, schedule: Q01DX005 (ip), vehicle: distilled water + Tween-80 + alcohol); 98 % of control (dose: 200.0 mg/kg/injection, schedule: Q01DX005 (ip), vehicle: distilled water + Tween-80 + alcohol).
For `C=C1CC2(C=C(C)CCC2C(C)C)OC1=O` (stereo unspecified), the T/C runs as follows: (dose: 100.0 mg/kg/injection, schedule: Q01DX001 (ip), vehicle: saline) 101 % of control; (dose: 200.0 mg/kg/injection, schedule: Q01DX001 (ip), vehicle: saline) 101 % of control; (dose: 400.0 mg/kg/injection, schedule: Q01DX001 (ip), vehicle: saline) 101 % of control.
For the compound `Cc1c2ccn(CCCCCCCCn3ccc4c(C)c5nc6ccccc6c5c(C)c4c3)cc2c(C)c2c1nc1ccccc12`, the T/C is 118 % of control and 121 % of control (dose: 3.13 mg/kg/injection, schedule: Q04DX003 (ip), vehicle: distilled water + Tween-80); 123 % of control (dose: 25.0 mg/kg/injection, schedule: Q04DX003 (ip), vehicle: distilled water + Tween-80).
Regarding `COc1cc(C(C)=O)c(C2=NC(C)(C)CO2)cc1C`, the T/C reads like this: under setting [1], 101 % of control; under setting [2], 98 % of control; (dose: 200.0 mg/kg/injection, schedule: Q01DX005 (ip), vehicle: saline with Tween-80) 97 % of control.
Consider `[O-][n+]1nccnc1N1CCCCC1`, for which the T/C is, setting by setting: under setting [6], 90 % of control; under setting [7], 98 % of control; under setting [8], 100 % of control.
Regarding `Cc1cc(N/N=C/c2ccc(Br)cc2)c2cc3c(cc2n1)OCO3`, the T/C reads like this: under setting [3], 94 % of control; under setting [4], 96 % of control; under setting [5], 96 % of control.
Turning to `COC(=O)C1(CC(=O)c2ccc(N3CCN(c4ccc(C(=O)CC5(C(=O)OC)NC(=S)NC(=O)C5C#N)cc4)CC3)cc2)NC(=S)NC(=O)C1C#N` (stereo unspecified), the T/C is 96 % of control (dose: 7.5 mg/kg/injection, schedule: Q01DX005 (ip), vehicle: Klucel (hydroxypropylcellulose) (HPC)); 99 % of control (dose: 15.0 mg/kg/injection, schedule: Q01DX005 (ip), vehicle: Klucel (hydroxypropylcellulose) (HPC)); 98 % of control and 92 % of control (dose: 30.0 mg/kg/injection, schedule: Q01DX005 (ip), vehicle: Klucel (hydroxypropylcellulose) (HPC)).
For `CCOC(=O)[C]1([Sb]([CH3])[CH3])N=NC(C(=O)OC)=C1C(=O)OC` (stereo unspecified), the T/C by setting is: (dose: 25.0 mg/kg/injection, schedule: Q04DX003 (ip), vehicle: saline) 101 % of control and 98 % of control; (dose: 50.0 mg/kg/injection, schedule: Q04DX003 (ip), vehicle: saline) 100 % of control and 102 % of control; (dose: 100.0 mg/kg/injection, schedule: Q04DX003 (ip), vehicle: saline with Tween-80) 108 % of control; (dose: 100.0 mg/kg/injection, schedule: Q04DX003 (ip), vehicle: saline) 102 % of control and 104 % of control; (dose: 200.0 mg/kg/injection, schedule: Q04DX003 (ip), vehicle: saline) 107 % of control and 98 % of control; (dose: 400.0 mg/kg/injection, schedule: Q04DX003 (ip), vehicle: saline with Tween-80) 105 % of control.
As to `CC(C)CC(NC(=O)OC(C)(C)C)C(=O)CBr` (stereo unspecified), the T/C reads like this: (dose: 12.5 mg/kg/injection, schedule: Q01DX001 (ip), vehicle: saline with Tween-80) 105 % of control; (dose: 25.0 mg/kg/injection, schedule: Q01DX001 (ip), vehicle: saline with Tween-80) 105 % of control; (dose: 50.0 mg/kg/injection, schedule: Q01DX001 (ip), vehicle: saline with Tween-80) 96 % of control.
As to `O=C1C=C(c2ccccc2)C(c2ccccc2)C1` (stereo unspecified), the T/C is, setting by setting: under setting [9], 89 % of control; under setting [10], 93 % of control; under setting [11], 93 % of control; (dose: 400.0 mg/kg/injection, schedule: Q01DX009 (ip), vehicle: saline with Tween-80) 93 % of control.
Turning to `CC(=O)Nc1ccc(C(=O)C(C)=O)cc1`, the T/C under setting [9] was 100 % of control, the T/C under setting [10] was 104 % of control and the T/C under setting [11] is 97 % of control.
`O=C1Nc2ccccc2NC(=O)C(=C(c2ccccc2)c2ccccc2)C1=C(c1ccccc1)c1ccccc1`: the T/C (dose: 60.0 mg/kg/injection, schedule: Q01DX005 (ip), vehicle: saline with Tween-80) was 90 % of control; the T/C (dose: 120.0 mg/kg/injection, schedule: Q01DX005 (ip), vehicle: saline with Tween-80) is 89 % of control; the T/C (dose: 240.0 mg/kg/injection, schedule: Q01DX005 (ip), vehicle: saline with Tween-80) is 89 % of control.
Take `COCCOCCOCCOCCn1cc(F)c(=O)[nH]c1=O`: the T/C is 104 % of control (dose: 50.0 mg/kg/injection, schedule: Q04DX002 (ip), vehicle: saline); 94 % of control under setting [6]; 100 % of control under setting [7]; 94 % of control under setting [8].
Consider `COc1ccc(OC)c(C=Nc2ccc(S(=O)(=O)Nc3nccc(C)n3)cc2)c1`, for which the T/C is 90 % of control (dose: 12.5 mg/kg/injection, schedule: Q01DX009 (ip), vehicle: saline with Tween-80); 90 % of control (dose: 25.0 mg/kg/injection, schedule: Q01DX009 (ip), vehicle: saline with Tween-80); 87 % of control under setting [9]; 100 % of control under setting [11].
As to `C[n+]1cccc(NC(=O)c2ccc(NC(=O)c3ccc(C(=O)Nc4ccc(NC(=N)N)cc4)cc3)cc2)c1`, the T/C was 110 % of control (dose: 4.7 mg/kg/injection, schedule: Q01DX009 (ip), vehicle: saline); 90 % of control (dose: 9.4 mg/kg/injection, schedule: Q01DX009 (ip), vehicle: saline); 195 % of control (dose: 12.5 mg/kg/injection, schedule: Q04DX003 (ip), vehicle: saline).
As to `NNC(=O)C(=O)NNC1CCCCC1`, the T/C (dose: 100.0 mg/kg/injection, schedule: Q01DX009 (ip), vehicle: Klucel (hydroxypropylcellulose) (HPC)) is 101 % of control and the T/C (dose: 200.0 mg/kg/injection, schedule: Q01DX009 (ip), vehicle: Klucel (hydroxypropylcellulose) (HPC)) is 104 % of control.
Consider `O=C1c2ccccc2C(=O)c2c1nc1sccn21`, for which the T/C by setting is: (dose: 3.12 mg/kg/injection, schedule: Q01DX005 (ip), vehicle: Klucel (hydroxypropylcellulose) (HPC)) 104 % of control; (dose: 6.25 mg/kg/injection, schedule: Q01DX005 (ip), vehicle: Klucel (hydroxypropylcellulose) (HPC)) 108 % of control; (dose: 12.5 mg/kg/injection, schedule: Q01DX005 (ip), vehicle: Klucel (hydroxypropylcellulose) (HPC)) 102 % of control and 104 % of control; under setting [3], 105 % of control.
As for `COC(=O)C12C(=O)C(C(=O)OC)(C(c3ccccc3)=C1c1ccccc1)C1OC(=O)OC12` (stereo unspecified), the T/C under setting [9] is 91 % of control and the T/C under setting [10] is 86 % of control.
For the compound `O=C(O)CNCCCNCC(=O)O`, the T/C is 94 % of control (dose: 50.0 mg/kg/injection, schedule: Q01DX005 (ip), vehicle: saline); 88 % of control (dose: 100.0 mg/kg/injection, schedule: Q01DX005 (ip), vehicle: saline); 99 % of control (dose: 200.0 mg/kg/injection, schedule: Q01DX005 (ip), vehicle: saline).
For `CCCCC(CC)C(=O)OCCNC(=O)C(C)OC(=O)C(CC)CCCC` (stereo unspecified), the T/C was 105 % of control (dose: 25.0 mg/kg/injection, schedule: Q01DX005 (ip), vehicle: Klucel (hydroxypropylcellulose) (HPC)); 102 % of control under setting [3]; 95 % of control under setting [4]; 105 % of control under setting [5].
